# Like-named read-outs stand apart in the source and are kept apart here.
# How the values were obtained:
# [1] = tested on: Pseudoperonospora cubensis (PSPECU); test: Droplet application on cucumber leaf, growth chamber (Examples 5a-d); assay type: in vivo
# Protocol: Examples 5a through 5d were conducted in growth chambers on cucumber plants. Cucumbers (Cucumis sativus cv Bush Pickle Hybrid #901261) were grown from seed in 5 cm by 5 cm pots containing MetroMix™ growth medium (Scotts, Marysville, Ohio) and maintained in a glasshouse with supplementary light sources to provide a 14 hour photoperiod at 24-29° C. until the plants were in the 2-3 true leaf stage of growth and the oldest leaf was fully expanded.
# For examples 5a through 5d, described below, samples of mancozeb formulated as Dithane DG NT were dissolved in water to form a ½×dilution series. Mancozeb rates were 400, 200, 100 and 50 ppm. Samples of various aldehydes, amino acids, carboxylic acids, amines and alcohols were dissolved in acetone and then mixed with aqueous solutions of mancozeb. Attractant rates in the dilute solutions were 100, 200, 500 or 1000 ppm, depending on the experiment.
# Mixtures of attractant or attractant derivative plus mancozeb or mancozeb alone were applied to cucumber as a row of 5 or 7.5 ul droplets using a multi-channel pipetting device. Five droplets spaced 1 cm apart were placed along the mid-rib of the expanded cucumber leaf with the first droplet being positioned at least 1-cm from the leaf apex. Each treatment was replicated three or four times, depending on the experiment. Two to three hours after applying the treatments when droplets had dried, plants were inoculated with a suspension of sporangia of a Pseudoperonospora cubensis (PSPECU) and incubated as described in the methods for sprayed tests. When symptoms were well developed in untreated check plants, the experiment was assessed visually using a template 2 cm wide and 7 cm long with the long axis centered on the mid-rib of the treated leaf.
# Reduction in percent disease was calculated by subtracting percent disease on plants receiving a mixture of mancozeb plus the specified test substance from percent disease on plants receiving mancozeb alone. The results for examples 5a-5d are shown below in Tables 7-10; the reduction in percent disease was indicated as follows: […]
# [2] = tested on: Phytophthora infestans (PHYTIN); assay type: in vivo
# [3] = tested on: Pseudoperonospora cubensis; test: Drop-band treatment of cucumber leaves, then spray inoculation with zoospores (Examples 1-3); assay type: in vivo
# Protocol: The following examples were carried out on greenhouse and growth chamber experiments on cucumber plants. The cucumber plants were grown from seed in soil-free medium mix (Metro-Mix 360®) and maintained in a glasshouse with supplementary light sources to provide a 16 hour photoperiod at 24-29° C. until the plants had produced 1-2 true leaves. Plants were then trimmed to 1 true leaf, approximately 8 cm across by removing any additional leaves.
# Referring below to Table 1, Dithane M45 and Dithane OS are standard commercial formulations. Isovaleraldehyde loaded onto PergoPak was prepared using the following procedure: a mixture of 1.35 g of PergoPak M (polyurea), 0.15 g of isovaleraldehyde and 8 mL of ether was stirred at room temperature for 10 min. The mixture was then concentrated by rotatory evaporation at room temperature under a slight vacuum to provide a solid that was air dried for an hour at room temperature and then bottled. All treatments were prepared by adding the appropriate amount of each treatment to distilled water to give the desired concentration of active ingredient. Dithane® M45 suspensions were initially prepared via serial dilution. Mancozeb/isovaleraldehyde solutions were prepared by adding a prepared isovaleraldehyde solution to a prepared mancozeb suspension. All solutions were vortexed and sonicated prior to treatment application to ensure that they were homogenous.
# A sporangial suspension of Pseudoperonospora cubensis was made by collecting leaves with freshly sporulating lesions and washing them in distilled water, which was made up of equal volumes of chilled (4° C.) and tap distilled water (21° C.). The suspension was then left on the lab bench for 2 hours to allow the release of zoospores from the sporangia. After 2 hours the suspension was filtered through filter paper (“Whatman”, 12.5 cm, grade 113V) to remove any remaining sporangia and mycelial fragments. The zoospore concentration was determined and then adjusted to the desired concentration with distilled water.
# For each example described below, an area 5 cm wide by 1 cm deep was initially marked on each cucumber leaf by placing a mark in each corner of the area. This was repeated on four separate plants to give four replicates for each treatment. Ten 15 microlitre drops were then applied to each leaf in two 5 drop bands (1 cm between each drop) and allowed to dry overnight. Subsequently a zoospore suspension of Pseudoperonospora cubensis (30,000 zoospores/mL) was sprayed with a hand-atomiser to the entire leaf until run-off. Plants were placed in a dew room (22° C. and 99% RH) for 24 hours then maintained in a growth room with supplementary light sources to provide a 14 hour photoperiod at 18° C. and 70% RH until disease assessment.
# Assessment of the effectiveness of the treatment was done by visual infection within the banded area. The banded area was evaluated on a percentage scale (with 0% representing no infection and 100% representing infection of the entire area) after 5-7 days.
# [4] = tested on: Plasmopara viticola (PLASVI); assay type: in vivo; conditions: for Reduction in percent disease: aldehyde derivative 100 ppm with mancozeb
# [5] = tested on: Pseudoperonospora cubensis (PSPECU); conditions: in vivo
# Phytophthora infestans = assay type: in vivo; conditions: for % Disease: potatoes, field, six sprays, rated 8 days after sixth application; for Disease control compared to Dithane alone (in words): combined with Dithane, potato field trial
# [6] = substance alone 500 ppm, untreated check 95
# [7] = Dithane 600 g ai/ha plus 300 ppm compound
# [8] = fungicide with Formulation I at 100 ppm, Table 19
compound,measurement,setting,value
"CC(C)CC=O [Isovaleraldehyde, isovaleraldehyde]",Reduction in % Disease,"[1]; substance 100 ppm with mancozeb 200 ppm vs mancozeb alone, Table 9",xx (21-35% reduction in percent disease)
same,Reduction in % Disease,"[1]; substance 200 ppm with mancozeb 50 ppm vs mancozeb alone, cucumber",xxxx (>50% reduction in percent disease)
same,Reduction in % Disease,"[1]; substance 500 ppm with mancozeb 200 ppm vs mancozeb alone, Table 8",xx (21-35% reduction in percent disease)
same,Reduction in % Disease,"[1]; substance 1000 ppm with mancozeb 50 ppm vs mancozeb alone, cucumber",xxx (36-50% reduction in percent disease)
same,% disease at 100 ppm of substance alone,"[1]; substance alone 100 ppm, untreated check 92%, Table 9",86%
same,% disease at 500 ppm of substance alone,"[1]; substance alone 500 ppm, untreated check 91%",93%
same,% disease at 1000 ppm of substance alone,"[1]; substance alone 1000 ppm, untreated check 100%",100%
same,Reduction in percent disease PHYTIN,"[2]; substance 500 ppm with mancozeb 25 ppm (Dithane DGNT), foliar spray, inoculated 2 to 3 hours after treatment",xxx (36-50% reduction in percent disease)
same,% disease at 500 ppm of substance alone PHYTIN,[2]; [6],77%
same,Percent infection of Pseudoperonospora cubensis on cucumbers,"[3]; isovaleraldehyde 50 ppm (sorbed to PergoPak M) alone, 5 days after application",41%
same,Percent infection of Pseudoperonospora cubensis on cucumbers,"[3]; isovaleraldehyde 100 ppm (sorbed to PergoPak M) alone, 5 days after application",34%
same,Percent infection of Pseudoperonospora cubensis on cucumbers,"[3]; isovaleraldehyde 100 ppm alone, 7 days after application",41%
same,Percent infection of Pseudoperonospora cubensis on cucumbers,"[3]; isovaleraldehyde 500 ppm (sorbed to PergoPak M) alone, 5 days after application",44%
same,Percent infection of Pseudoperonospora cubensis on cucumbers,"[3]; pure isovaleraldehyde 50 ppm alone, 6 days after application",51%
same,Percent infection of Pseudoperonospora cubensis on cucumbers,"[3]; pure isovaleraldehyde 100 ppm alone, 6 days after application",44%
same,Reduction in percent disease PLASVI,"[4]; substance 500 ppm with mancozeb 6.25 ppm (Dithane DGNT), foliar spray, inoculated 2 to 3 hours after treatment",xxx (36-50% reduction in percent disease)
same,% disease at 500 ppm of substance alone PLASVI,[4]; [6],93%
"N#Cc1c(Cl)c(Cl)c(Cl)c(C#N)c1Cl [Chlorothalonil, chlorothalonil]","Reduction in percent disease, Formul. I","[2]; PHYTIN, fungicide with Formulation I at 100 ppm of attractant derivative, Table 22",x (0-20% reduction in percent disease)
same,Percent infection of Pseudoperonospora cubensis on cucumbers,"[3]; chlorothalonil 5 ppm alone, 7 days after application",24%
same,Percent infection of Pseudoperonospora cubensis on cucumbers,"[3]; chlorothalonil 20 ppm alone, 7 days after application",9%
same,Percent infection of Pseudoperonospora cubensis on cucumbers,"[3]; chlorothalonil 100 ppm alone, 7 days after application",0%
same,"Reduction in percent disease, Formul. I","[4]; PLASVI, fungicide with Formulation I at 100 ppm of attractant derivative, Table 22",x (0-20% reduction in percent disease)
same,"Reduction in percent disease, Formul. I",[5],x (key: x: 0-20% reduction in percent disease; xx: 21-35% reduction in percent disease; xxx: 36-50% reduction in percent disease; xxxx: >50% reduction in percent disease)
condensation product of urea and isovalderaldehyde [Compound B],% Disease,Phytophthora infestans; 300 ppm compound alone,98%
same,% Disease,Phytophthora infestans; [7],9%
same,Disease control compared to Dithane alone (in words),Phytophthora infestans,significantly improve disease control
same,Reduction in percent disease,"[4]; PLASVI, Table 13",xx (21-35% reduction in percent disease)
same,Reduction in percent disease,"[4]; PLASVI, Table 15",xx (21-35% reduction in percent disease)
same,Reduction in percent disease,[5],x (key: x: 0-20% reduction in percent disease; xx: 21-35% reduction in percent disease; xxx: 36-50% reduction in percent disease; xxxx: >50% reduction in percent disease)
"CC(C)CC(O)S(=O)(=O)[O-].[Na+] (centres unmarked) [Isovaleraldehyde bisulfite adduct, sodium]",Percent infection of Pseudoperonospora cubensis on cucumbers,"[3]; isovaleraldehyde bisulfite adduct, sodium 100 ppm alone, 7 days",45%
"CCC(C)(NC(=O)c1cc(Cl)c(C)c(Cl)c1)C(=O)CCl (centres unmarked) [Zoxamide, zoxamide]","effect of Formulation I on the effectiveness of fungicides, PHYTIN","[2]; fungicide with Formulation I at 100 ppm, Table 20",xx (21-35% reduction in percent disease)
same,Percent infection of Pseudoperonospora cubensis on cucumbers,"[3]; zoxamide 1 ppm alone, 7 days after application",28%
same,Percent infection of Pseudoperonospora cubensis on cucumbers,"[3]; zoxamide 5 ppm alone, 7 days after application",16%
same,Percent infection of Pseudoperonospora cubensis on cucumbers,"[3]; zoxamide 25 ppm alone, 7 days after application",16%
same,"effect of Formulation I on the effectiveness of fungicides, PSPECU",[5],x (key: x: 0-20% reduction in percent disease; xx: 21-35% reduction in percent disease; xxx: 36-50% reduction in percent disease; xxxx: >50% reduction in percent disease)
CCCC=NNC(=O)Nc1ccccc1 [Compound A],% Disease,Phytophthora infestans; 300 ppm compound alone,98%
same,% Disease,Phytophthora infestans; [7],20%
same,Disease control compared to Dithane alone (in words),Phytophthora infestans,significantly improve disease control
same,Reduction in percent disease,"[4]; PLASVI, Table 13",xx (21-35% reduction in percent disease)
same,Reduction in percent disease,[5],xx (key: x: 0-20% reduction in percent disease; xx: 21-35% reduction in percent disease; xxx: 36-50% reduction in percent disease; xxxx: >50% reduction in percent disease)
Cc1ccc(-c2c(Cl)nc(C#N)n2S(=O)(=O)N(C)C)cc1 [Cyazofamid],"Reduction in percent disease, Formul. I","[2]; PHYTIN, fungicide with Formulation I at 100 ppm, Table 21",xx (21-35% reduction in percent disease)
same,"Reduction in percent disease, Formul. II","[2]; PHYTIN, fungicide with Formulation II at 100 ppm, Table 21",xxx (36-50% reduction in percent disease)
same,Reduction in percent disease PHYTIN,[2]; [8],x (0-20% reduction in percent disease)
same,"Reduction in percent disease, Formul. I","[4]; PLASVI, fungicide with Formulation I at 100 ppm, Table 21",x (0-20% reduction in percent disease)
same,"Reduction in percent disease, Formul. II","[4]; PLASVI, fungicide with Formulation II at 100 ppm, Table 21",x (0-20% reduction in percent disease)
same,Reduction in percent disease PLASVI,[4]; [8],x (0-20% reduction in percent disease)
same,"Reduction in percent disease, Formul. II",[5],x (key: x: 0-20% reduction in percent disease; xx: 21-35% reduction in percent disease; xxx: 36-50% reduction in percent disease; xxxx: >50% reduction in percent disease)
CC(C)[C@H](NC(=O)O)C(=O)N[C@H](C)c1nc2ccc(F)cc2s1 [Benthiavalicarb],Reduction in percent disease PHYTIN,[2]; [8],x (0-20% reduction in percent disease)
same,Reduction in percent disease PLASVI,[4]; [8],x (0-20% reduction in percent disease)
same,Reduction in percent disease PSPECU,[5],xx (key: x: 0-20% reduction in percent disease; xx: 21-35% reduction in percent disease; xxx: 36-50% reduction in percent disease; xxxx: >50% reduction in percent disease)
